“Also recorded” adds a separate entry of the source.
Tests used:
[1] = target: STAT3 (Homo sapiens, UniProt P40763); experiment: SPR binding, His-tagged STAT3; conditions: 25° C., Langmuir 1:1 binding model
Description: Interactions of His-tagged STAT3 and STAT5 with small molecules were investigated using SPR spectroscopy. The binding experiments were carried on a ProteOn XPR36 (Bio-Rad) biosensor at 25° C. using the HTE sensor chip (Bio-Rad, Ontario, Canada). The flow cells of the sensor chip were loaded with a nickel solution at 30 μL/min for 120 s to saturate the Tris-NTA surface with Ni(II) ions. […] When the injection of the compounds was completed, running buffer was allowed to flow over the immobilized substrates for the non-specifically bound inhibitors to dissociate for 600 s. Following dissociation of the compounds, the chip surface was regenerated with an injection of 1 M NaCl at a flow rate of 100 μL/min for 18 s. Interspot channel reference was used for non-specific binding corrections and the blank channel used with each analyte injection served as a double reference to correct for possible baseline drift. Data were analysed using ProteOn Manager Software version 3.1.

[2] = target: T1, wildtype STAT5B protein (SH2 domain) (Homo sapiens, UniProt P51692); experiment: Fluorescence polarization competitive binding, STAT5b; conditions: FP
T1 sequence (P51692 1-787): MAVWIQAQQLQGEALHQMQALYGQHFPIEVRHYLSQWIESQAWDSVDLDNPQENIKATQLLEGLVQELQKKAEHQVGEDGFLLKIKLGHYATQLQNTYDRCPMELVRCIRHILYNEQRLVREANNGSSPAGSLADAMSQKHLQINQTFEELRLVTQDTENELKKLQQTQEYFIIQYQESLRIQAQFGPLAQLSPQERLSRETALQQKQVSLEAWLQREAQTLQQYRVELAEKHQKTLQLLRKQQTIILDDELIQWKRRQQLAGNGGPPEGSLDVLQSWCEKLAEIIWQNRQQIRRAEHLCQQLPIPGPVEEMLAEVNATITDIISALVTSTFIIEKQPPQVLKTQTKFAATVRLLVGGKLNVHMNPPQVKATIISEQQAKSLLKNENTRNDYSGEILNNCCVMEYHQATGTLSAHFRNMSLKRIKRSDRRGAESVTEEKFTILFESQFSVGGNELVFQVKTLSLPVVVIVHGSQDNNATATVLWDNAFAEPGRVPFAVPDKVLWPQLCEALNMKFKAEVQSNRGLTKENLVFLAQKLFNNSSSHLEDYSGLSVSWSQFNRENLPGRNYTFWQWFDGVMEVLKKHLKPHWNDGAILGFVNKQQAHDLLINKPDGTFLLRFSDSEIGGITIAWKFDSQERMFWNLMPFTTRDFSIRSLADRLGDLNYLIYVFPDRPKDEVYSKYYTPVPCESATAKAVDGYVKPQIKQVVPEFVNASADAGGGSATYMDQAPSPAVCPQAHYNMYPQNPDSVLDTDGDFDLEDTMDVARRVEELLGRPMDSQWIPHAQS
Description: Fluorescence assays were performed in flat black 384-well plates (Corning) and fluorescence polarization measurements were taken with the Infinite M1000 machine (Tecan, Crailsheim, Germany). The buffer conditions for all assays were 20 mM HEPES, 50 mM NaCl, 1 mM EDTA, 2 mM dithiothreitol, pH 7.5 and the final DMSO concentration in the wells was kept constant at 10%.
The point at which 80% of the fluoresceinated-phosphopeptide was bound was used as the optimal protein concentration required for the competitive fluorescent polarization assays.
Compounds were titrated at concentrations ranging from 1->60,000 nM and incubated for a further 15 minutes at which point fluorescence polarization measurements were taken in triplicate. The final well concentrations of the fluoresceinated-phosphopeptide and STAT5B were 10 nM and 250 nM, respectively.
The resulting fluorescence polarization measurements were normalized and plotted against compound concentration on a logarithmic scale. The raw data was fitted with a standard dose-normalized response inhibition curve using GraphPad Prism 6 software.
Modified Cheng-Pruskoff equation containing a correction factor for protein concentration.

[3] = target: T2, wildtype STAT1 protein (Homo sapiens, UniProt P42224); experiment: Fluorescence polarization competitive binding, STAT1; conditions: FP; read-out: IC50, disruption of phosphopeptide-STAT1 complex
T2 sequence (P42224 1-750): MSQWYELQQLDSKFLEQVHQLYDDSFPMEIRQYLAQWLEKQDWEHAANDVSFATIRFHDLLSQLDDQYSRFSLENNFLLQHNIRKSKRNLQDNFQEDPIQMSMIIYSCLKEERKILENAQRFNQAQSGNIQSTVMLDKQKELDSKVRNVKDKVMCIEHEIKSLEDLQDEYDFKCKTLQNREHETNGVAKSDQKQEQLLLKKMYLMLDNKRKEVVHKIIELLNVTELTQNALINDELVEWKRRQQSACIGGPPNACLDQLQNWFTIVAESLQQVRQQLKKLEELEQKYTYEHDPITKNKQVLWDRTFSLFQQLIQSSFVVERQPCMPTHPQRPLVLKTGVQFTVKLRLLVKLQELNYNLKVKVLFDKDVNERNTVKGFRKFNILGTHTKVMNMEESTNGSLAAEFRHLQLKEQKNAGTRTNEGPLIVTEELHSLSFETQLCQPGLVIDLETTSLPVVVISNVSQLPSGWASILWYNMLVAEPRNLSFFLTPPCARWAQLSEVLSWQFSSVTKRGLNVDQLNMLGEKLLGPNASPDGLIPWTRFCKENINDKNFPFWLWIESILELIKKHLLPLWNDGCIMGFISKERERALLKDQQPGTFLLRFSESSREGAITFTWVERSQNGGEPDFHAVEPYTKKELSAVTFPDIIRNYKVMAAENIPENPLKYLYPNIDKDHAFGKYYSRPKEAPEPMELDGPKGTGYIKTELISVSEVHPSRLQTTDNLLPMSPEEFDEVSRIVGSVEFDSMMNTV

[4] = test system: healthy human CD34+ umbilical cord cells; experiment: Cell viability, healthy CD34+ umbilical cord cells; assay type: cell-based
[5] = test system: pSTAT5; experiment: Western blotting of pSTAT5 in MV-4;11 cells; assay type: cell-based, Human
Source text: Correspondingly, western blot analysis for protein levels of pSTAT5 and downstream target gene expression were also investigated within the AML cell line, MV-4; 11.

[6] = HPLC stability with excess glutathione tripeptide; assay type: in vitro ADME; conditions: 100 μM compound, 10 mM glutathione, HEPES buffer, 20 h
Source text: Considering the structure of 13a, the pentafluorobenzene is the functional moiety that is likely most susceptible to nucleophilic attack from the GST enzyme. Specifically, the para position is highly electron withdrawn enabling for nucleophilic aromatic substitution to take place. […] Data points obtained with the analytical HPLC experiments were fit using ORIGIN software using an exponential decay equation. This equation models for chemical/biological processes whereby a rate in which something happens is proportional to the amount left. Each drug molecule has a certain probability of being metabolized in a small time interval. Thus, as a drug concentration goes down, the rate of its metabolism goes down as well.

STAT3, sequence (P40763 whole entry): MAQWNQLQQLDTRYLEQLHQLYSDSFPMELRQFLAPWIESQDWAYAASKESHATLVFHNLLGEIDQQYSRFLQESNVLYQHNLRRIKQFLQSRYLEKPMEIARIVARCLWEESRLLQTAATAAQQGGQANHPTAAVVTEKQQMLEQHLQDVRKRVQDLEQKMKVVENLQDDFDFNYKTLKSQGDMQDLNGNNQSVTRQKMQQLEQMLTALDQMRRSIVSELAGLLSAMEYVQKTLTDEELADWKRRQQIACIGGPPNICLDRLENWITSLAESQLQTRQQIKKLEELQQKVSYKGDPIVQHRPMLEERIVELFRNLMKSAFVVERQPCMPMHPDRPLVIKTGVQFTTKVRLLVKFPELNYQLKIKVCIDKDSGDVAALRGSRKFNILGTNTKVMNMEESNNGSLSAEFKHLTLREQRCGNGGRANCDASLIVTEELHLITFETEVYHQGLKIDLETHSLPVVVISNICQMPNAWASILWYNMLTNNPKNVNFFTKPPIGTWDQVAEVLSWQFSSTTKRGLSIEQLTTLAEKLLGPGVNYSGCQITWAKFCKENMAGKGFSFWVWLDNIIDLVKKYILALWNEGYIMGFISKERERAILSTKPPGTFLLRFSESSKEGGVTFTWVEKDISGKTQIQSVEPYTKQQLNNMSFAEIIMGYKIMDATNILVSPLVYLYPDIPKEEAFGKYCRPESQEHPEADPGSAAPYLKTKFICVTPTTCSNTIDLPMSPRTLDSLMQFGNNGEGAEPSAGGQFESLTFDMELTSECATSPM

`CC(C)(C)c1cc(CN(C(=O)CN(Cc2ccc(Cl)cc2)S(=O)(=O)c2c(F)c(F)c(F)c(F)c2F)c2ccc(C(=O)O)c(O)c2)cc(C(C)(C)C)c1` [Compound 13a, 4-(2-((N-(4-chlorobenzyl)-2,3,4,5,6-pentafluorophenyl)sulfonamido)-N-(3,5-di-tert-butylbenzyl)acetamido)-2-hydroxybenzoic Acid] gave a Kd [1] of 287 ± 29 nM, an IC50 ([2]; 5-FAM-GpYLVLDKW 10 nM, STAT5B 250 nM) of 370 nM and a Ki ([2]; converted from IC50 with Equation 1) of 150 nM. For the same molecule, the IC50 [3] was > 150000 nM, the “effect on cell viability of healthy CD34+ cells” value ([4]; 10 μM) was “little reduction in cell viability; also recorded: little effect” and the “difference in sensitivity CD34+ vs MV-4;11 cells” value ([4]; therapeutic window) was “approximate order of magnitude difference”. For the same molecule, the pSTAT5 level ([5]; MV-4;11, 5 h) was “dose-dependent decrease”, the pSTAT5 phosphorylation ([5]; MV-4;11, 24 h, 10 μM) was “complete ablation” and the “stability to glutathione conjugation” value [6] was “stable to glutathione conjugation”.

From US10519107B2, “Sulfonamide compounds and their use as STAT5 inhibitors” (Governing Council of the University of Toronto, priority 2014, dated 2019)
